These results are taken from ChEMBL document CHEMBL3739294, “Hydroxylated Daphniphyllum Alkaloids from Daphniphyllum himalense” (J Nat Prod, 2015).

Experiment [1] concerns the target T1, Protein deacetylase HDAC6 (Homo sapiens) (UniProt Q9UBN7).
T1 sequence (whole entry): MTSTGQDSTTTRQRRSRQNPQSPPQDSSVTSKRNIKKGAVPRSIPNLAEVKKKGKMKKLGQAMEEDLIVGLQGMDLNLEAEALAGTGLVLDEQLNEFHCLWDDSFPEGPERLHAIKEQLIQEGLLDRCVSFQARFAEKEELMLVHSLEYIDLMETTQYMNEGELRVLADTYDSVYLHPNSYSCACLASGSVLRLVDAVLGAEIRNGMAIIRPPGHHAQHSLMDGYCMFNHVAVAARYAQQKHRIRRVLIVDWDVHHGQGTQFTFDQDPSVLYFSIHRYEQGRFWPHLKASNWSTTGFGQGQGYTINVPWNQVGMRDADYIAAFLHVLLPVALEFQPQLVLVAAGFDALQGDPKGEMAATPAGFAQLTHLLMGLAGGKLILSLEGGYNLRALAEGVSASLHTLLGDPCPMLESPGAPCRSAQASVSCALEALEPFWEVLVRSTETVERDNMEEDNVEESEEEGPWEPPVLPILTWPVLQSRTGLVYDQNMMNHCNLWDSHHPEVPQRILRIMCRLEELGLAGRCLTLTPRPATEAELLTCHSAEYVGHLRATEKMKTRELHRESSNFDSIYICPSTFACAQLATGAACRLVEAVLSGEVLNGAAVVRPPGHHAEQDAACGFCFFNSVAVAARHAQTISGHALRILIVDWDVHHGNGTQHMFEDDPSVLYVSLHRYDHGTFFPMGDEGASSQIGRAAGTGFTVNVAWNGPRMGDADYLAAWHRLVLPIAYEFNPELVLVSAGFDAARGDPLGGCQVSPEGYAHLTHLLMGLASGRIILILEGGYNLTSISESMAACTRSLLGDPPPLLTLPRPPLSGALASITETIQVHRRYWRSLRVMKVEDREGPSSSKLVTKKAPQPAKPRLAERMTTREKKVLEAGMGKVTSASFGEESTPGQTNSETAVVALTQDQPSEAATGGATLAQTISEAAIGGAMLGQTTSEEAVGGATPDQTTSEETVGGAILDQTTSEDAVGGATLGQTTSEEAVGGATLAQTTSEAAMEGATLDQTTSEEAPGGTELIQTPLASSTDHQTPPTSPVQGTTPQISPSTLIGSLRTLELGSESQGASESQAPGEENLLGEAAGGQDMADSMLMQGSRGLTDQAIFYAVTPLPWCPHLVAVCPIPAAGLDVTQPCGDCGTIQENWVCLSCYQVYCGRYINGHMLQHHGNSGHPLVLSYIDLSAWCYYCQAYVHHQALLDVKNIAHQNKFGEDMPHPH
The experiment is described as follows: Inhibition of full-length recombinant human HDAC6 expressed in insect High5 cells using Boc-Lys(-acetyl)-AMC as substrate incubated for 3 hrs. The arrangement: concentration or dose not given beside the values. The note with it: concentration not given here.

In experiment [2] the target is T2, Tyrosine-protein phosphatase non-receptor type 1 (Homo sapiens) (UniProt P18031).
T2 sequence (whole entry): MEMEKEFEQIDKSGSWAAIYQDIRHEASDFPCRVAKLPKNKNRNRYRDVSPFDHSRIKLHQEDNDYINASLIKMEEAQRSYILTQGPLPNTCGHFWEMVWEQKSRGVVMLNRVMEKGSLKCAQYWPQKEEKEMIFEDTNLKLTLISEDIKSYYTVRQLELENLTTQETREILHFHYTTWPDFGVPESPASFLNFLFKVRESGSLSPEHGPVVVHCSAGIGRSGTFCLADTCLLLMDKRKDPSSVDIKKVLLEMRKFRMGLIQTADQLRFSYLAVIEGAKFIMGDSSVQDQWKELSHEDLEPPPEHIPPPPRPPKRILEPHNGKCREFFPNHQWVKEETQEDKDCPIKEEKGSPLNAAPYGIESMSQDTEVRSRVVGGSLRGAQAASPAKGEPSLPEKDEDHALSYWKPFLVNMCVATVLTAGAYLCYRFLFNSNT
The experiment is described as follows: Inhibition of PTP1B (unknown origin) using pNPP as substrate at 20 ug/ml measured for 3 mins by colorimetric assay.

The target in experiment [3] is Tyrosine-protein phosphatase non-receptor type 1, PTP1B (Homo sapiens) (UniProt P18031). Put plainly: Inhibition of human PTP1B protein expressed in insect High5 cells by Z-LYTE kinase assay. The note with it: concentration not given here.
For experiment [4], the target named is T3, Aurora kinase A (Homo sapiens) (UniProt O14965).
T3 sequence (whole entry): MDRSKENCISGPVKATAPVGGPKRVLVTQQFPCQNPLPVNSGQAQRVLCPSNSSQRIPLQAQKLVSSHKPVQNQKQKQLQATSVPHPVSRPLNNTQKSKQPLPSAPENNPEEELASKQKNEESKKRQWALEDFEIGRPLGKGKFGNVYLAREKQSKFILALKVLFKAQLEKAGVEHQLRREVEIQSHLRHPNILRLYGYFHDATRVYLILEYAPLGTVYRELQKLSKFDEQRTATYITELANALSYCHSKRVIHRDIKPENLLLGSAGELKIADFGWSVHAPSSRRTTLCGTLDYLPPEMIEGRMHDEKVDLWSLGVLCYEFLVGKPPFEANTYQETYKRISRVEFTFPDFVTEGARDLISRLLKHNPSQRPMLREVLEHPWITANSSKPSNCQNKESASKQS
The experiment is described as follows: Inhibition of aurora kinase A (unknown origin) incubated for 60 mins by fluorescence analysis.

With `COC(=O)[C@@H]1C[C@@]23C(=O)[C@H]4[C@H](O)[C@H]5N(C[C@@H](CCC6=C2[C@@H]1CC6)[C@]53C)C[C@H]4C`, the inhibition (in general, the drop in the measured response relative to a control, in per cent) in experiment [1] is less than 10%.

Take `COC(=O)[C@@H]1C[C@@]23C(=O)[C@H]4C[C@H]5N(C[C@@H](C[C@H](O)C6=C2[C@@H]1CC6)[C@]53C)C[C@H]4C`: the inhibition in experiment [1] was less than 10%.

Turning to `COC(=O)C1=C2C[C@H](O)C3=C2[C@@]2(C1)C(=O)[C@H]1C[C@H]4N(C[C@@H](CC3)[C@]42C)C[C@H]1C`, the inhibition is less than 10% in experiment [1] and 40% in experiment [2].

On to `C[C@@H]1CN2C[C@H]3CCC4=C5C(=CC[C@@]56C(=O)[C@H]1C[C@@H]2[C@@]36C)[C@@H](O)C4`, for which the inhibition in experiment [1] was less than 10%.

With `C[C@@H]1CN2C[C@H]3CC[C@@H]4C(=O)C=C5CC[C@@]6(C(=O)[C@H]1C[C@@H]2[C@@]36C)[C@@]54O`, the values for the inhibition in experiment [1], in experiment [2] and in experiment [3] were less than 10%, 40% and 44%, respectively.

Turning to `COC(=O)[C@@H]1C[C@@]23C(=O)[C@H]4C[C@H]5N(C[C@H]4C)C[C@@H]([C@@H](O)CC4=C2[C@@H]1CC4)[C@]53C`, the inhibition in experiment [1] was less than 10%.

`C[C@@H]1CN2C[C@H]3CC[C@]4(O)C[C@H](O)C5=C4[C@@]4(CC5)C(=O)[C@H]1C[C@@H]2[C@@]34C`: the inhibition in experiment [1] was less than 10%.

Consider `C[C@@H]1CN2C[C@H]3CC[C@H](O)[C@@H]4C(CCO)=C(C(=O)O)C[C@@]45C(=O)[C@H]1C[C@@H]2[C@@]35C`, for which the inhibition in experiment [1] is less than 10%.

With `C[C@@H]1CN2C[C@H]3CC[C@H](O)[C@@H]4C5=C(C[C@@]46C(=O)[C@H]1C[C@@H]2[C@@]36C)C(=O)OCC5`, the inhibition in experiment [1] is less than 10%.

Take `COC(=O)[C@@H]1C[C@@]23C(=O)[C@H]4C[C@H]5N(C[C@@H](C[C@@H](O)C6=C2[C@@H]1CC6)[C@]53C)C[C@H]4C`: the inhibition in experiment [1] is less than 10%.

Consider `COC(=O)[C@@H]1C[C@@]23C(=O)[C@H]4C[C@H]5N(C[C@@H](CCC6=C2[C@@H]1C[C@H]6O)[C@]53C)C[C@H]4C`, for which, in experiment [1], the inhibition is less than 10%.

In the case of `COC(=O)C1=C2CCC3=C2[C@@]2(C1)C(=O)[C@H]1C[C@@]4(O)N(C[C@@H](CC3)[C@@]24C)C[C@H]1C`, the values for the inhibition in experiment [1] and in experiment [4] were less than 10% and greater than 30%, respectively.

Take `COC(=O)[C@@H]1C[C@@]23C(=O)[C@H]4C[C@H]5N(C[C@H]4C)C[C@@H]([C@H](O)CC4=C2[C@@H]1CC4)[C@]53C`: the inhibition in experiment [1] is less than 10%.
